For one series, the system named is Botrytis cinerea. The experiment in a line: Botrytis test (beans)/protective. It counts as in vivo. To be noted: protective, 500 ppm active compound, lesion size 3 days after inoculation. As for the experimental part:
Botrytis Test (Beans)/Protective Solvent: 4.7 parts by weight of acetone Emulsifier: 0.3 part by weight of alkylaryl polyglycol ether To produce a suitable preparation of active compound, 1 part by weight of active compound is mixed with the stated amounts of solvent and emulsifier, and the concentrate is diluted with water to the desired concentration. To test for protective activity, young plants are sprayed with the preparation of active compound. After the spray coating has dried on, 2 small pieces of agar covered with Botrytis cinerea are placed on each leaf. The inoculated plants are then placed in a darkened humid chamber at 20° C. 3 days after the inoculation, the size of the lesions on the leaves is evaluated.

Series [1] relates to larvae of the green rice leafhopper (Nephotettix cincticeps). The experiment in a line: Nephotettix test. It counts as in vivo. As to conditions: rice seedlings dipped, active compound concentration 0.001%, after 7 days. As for the experimental part:
Nephotettix Test Solvent: 7 parts by weight of dimethylformamide Emulsifier: 1 part by weight of alkylaryl polyglycol ether To produce a suitable preparation of active compound, 1 part by weight of active compound is mixed with the stated amount of solvent and the stated amount of emulsifier, and the concentrate is diluted with water to the desired concentration. Rice seedlings (Oryza sativa) are treated by being dipped into the preparation of the active compound of the desired concentration and populated with larvae of the green rice leafhopper (Nephotettix cincticeps) while the seedlings are still moist. After the specified period of time, the destruction in % is determined. 100% means that all the leafhoppers have been killed; 0% means that none of the leafhoppers have been killed.

Another series deals with Sphaerotheca fuliginea. The experiment in a line: Sphaerotheca test (cucumber)/protective. It is filed as in vivo. To be noted: protective, 100 ppm active substance, evaluation 10 days after inoculation. As for the experimental part:
Sphaerotheca Test (Cucumber)/Protective Solvent: 4.7 parts by weight of acetone Emulsifier: 0.3 part by weight of alkylaryl polyglycol ether To produce a suitable preparation of active compound, 1 part by weight of active compound is mixed with the stated amounts of solvent and emulsifier, and the concentrate is diluted with water to the desired concentration. To test for protective activity, young plants are sprayed with the preparation of active compound. After the spray coating has dried on, the plants are dusted with conidia of the fungus Sphaerotheca fuliginea. The plants are then placed in a greenhouse at 23 to 24° C. and at a relative atmospheric humidity of about 75%. Evaluation is carried out 10 days after the inoculation.

Series [2] has as its system Pseudocercosporella herpotrichoides. The experiment in a line: Pseudocercosporella herpotrichoides test (wheat)/protective. As to conditions: protective, application rate 250 g/ha, evaluation 21 days after inoculation. It is filed as in vivo. On the procedure:
Pseudocercosporella herpotrichoides Test (Wheat)/Protective Solvent: 10 parts by weight of N-methyl-pyrrolidone Emulsifier: 0.6 part by weight of alkylaryl polyglycol ether To produce a suitable preparation of active compound, 1 part by weight of active compound is mixed with the stated amounts of solvent and emulsifier, and the concentrate is diluted with water to the desired concentration. To test for protective activity, young plants are sprayed with the preparation of active compound at the rate of application shown. After the spray coating has dried on, the stem base of the plants is inoculated with spores of Pseudocercosporella herpotrichoides. […] Evaluation is carried out 21 days after the inoculation.

The next series has as its system Pyricularia oryzae. It counts as in vivo. As to conditions: rice, protective, active compound concentration 0.05%, evaluation 4 days after inoculation.
The subject of series [3] is mustard beetle larvae (Phaedon cochleariae). The experiment in a line: Phaedon larvae test. As to conditions: cabbage leaves dipped, active compound concentration 0.01%, after 7 days. It counts as in vivo. As for the experimental part:
(§1) Phaedon Larvae Test Solvent: 7 parts by weight of dimethylformamide Emulsifier: 1 part by weight of alkylaryl polyglycol ether To produce a suitable preparation of active compound, 1 part by weight of active compound is mixed with the stated amount of solvent and the stated amount of emulsifier, and the concentrate is diluted with water to the desired concentration. Cabbage leaves (Brassica oleracea) are treated by being dipped into the preparation of the active compound of the desired concentration and are populated with mustard beetle larvae (Phaedon cochleariae) while the leaves are still moist. After the specified period of time, the destruction in % is determined. 100% means that all the beetle larvae have been killed; 0% means that none of the beetle larvae have been killed.

The subject of series [4] is caterpillars of the fall armyworm Spodoptera frugiperda. The experiment in a line: Spodoptera test. As to conditions: cabbage leaves dipped, concentration 0.1%, after 7 days. It counts as in vivo. As for the experimental part: as §1, with “Spodoptera” for “Phaedon Larvae”, “[…]” for “weight of dimethylformamide”, “caterpillars of the fall armyworm Spodoptera frugiperda” for “mustard beetle larvae (Phaedon cochleariae)”, “activity” for “destruction”, “caterpillars” for “beetle larvae”

SMILES strings stand for the structures.

The melting point is the temperature of the solid-liquid transition.

Turning to `CC(NC(=O)c1cccc(NC=O)c1O)c1ccc(F)cc1` (stereo not drawn) [Example 3, 3-formamido-2-hydroxy-N-[1-(4-fluorphenyl)-ethyl)-benzamide], the efficacy in the series with Botrytis cinerea came out at 90%.

Regarding `O=CNc1cccc(C(=O)Nc2ccc(Oc3ccc(Cl)cc3)c(Cl)c2)c1O` [Example 4], in the series with Botrytis cinerea, the efficacy came out at 90%.

As for `O=CNc1cccc(C(=O)NCc2cccc(C(F)(F)F)c2)c1O` [Example 39], in series [1], the destruction stood at 100%.

In series [1], `CC(NC(=O)c1cccc(NC=O)c1O)C1CC=CCC1` (stereo not drawn) [Example 71] registered a destruction of 100%.

Consider `CC(NC(=O)c1cccc(NC=O)c1O)c1ccc(Cl)cc1Cl` (stereo not drawn) [Example 15], for which the efficacy in the series on Botrytis cinerea was determined as 90%.

With `CCc1ccc(C(C)NC(=O)c2cccc(NC=O)c2O)cc1` (stereo not drawn) [Example 16], the efficacy in the series on Botrytis cinerea was 90%.

On to `O=CNc1cccc(C(=O)Nc2ccc(Oc3cccc(C(F)(F)F)c3)cc2)c1O` [Example 5], for which the efficacy result was “over 80%” in the series with Sphaerotheca fuliginea, “over 80%” in series [2], “over 80%” in the series on Pyricularia oryzae and 90% with Botrytis cinerea.

The compound `CC(NC(=O)c1cccc([N+](=O)[O-])c1OCc1ccccc1)c1cccc(C(F)(F)F)c1` (stereo not drawn) [Example V-34] showed a destruction in series [3] of 100%.

In turn, `O=CNc1cccc(C(=O)NCc2ccc(F)cc2)c1O` [Example 35] gave a destruction in series [1] of 100%.

For `CCc1ccc(-c2ccc(CCNC(=O)c3cccc(NC=O)c3O)cc2)cc1` [Example 47], the destruction rate in series [4] was 85%. The destruction in series [3] was 100%.

For the compound `COc1cccc(C(C)NC(=O)c2cccc(NC=O)c2O)c1` (stereo not drawn) [Example 10], the efficacy in the series with Botrytis cinerea is 90%.

As to `O=C(Nc1ccc(-c2ccccc2)cc1)c1cccc([N+](=O)[O-])c1O` [IV-a-1, 3-nitro-2-hydroxy-N-(4-phenyl-phenyl)-benzamide], the melting point is 152 °C.

As to `O=CNc1cccc(C(=O)Nc2ccc(-c3ccccc3)cc2)c1O` [Example 2, 3-formamido-2-hydroxy-N-(4-phenylphenyl)-benzamide], the melting point came to 190 °C. Further, in the series on Botrytis cinerea, the efficacy is on record as 90%.

The values are drawn from patent US6548549B1, “Acylaminosalicylic acid amides and their uses as pesticides” (Bayer Aktiengesellschaft, priority 1995, dated 2003).
